Experimental data: PubChem BioAssay (NCI)
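Values below derive from 48-hour exposures of cells grown in 96-well plates, with endpoints linearly interpolated between the two concentrations bracketing the appropriate inhibition level. TGI: concentration producing complete growth inhibition.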

What was measured:
Assay in all cases: NCI tumour cell line growth inhibition, 48 h
[1] = system: PC-3 prostate
[2] = system: K-562 leukemia
[3] = system: MDA-N
[4] = system: SK-MEL-2 melanoma
[5] = system: SK-MEL-28 melanoma
[6] = system: KM12 colon
[7] = system: SK-OV-3 ovarian
[8] = system: DU-145 prostate
[9] = system: EKVX NSCLC
[10] = system: OVCAR-8 ovarian
[11] = system: UACC-257 melanoma
[12] = system: M14 melanoma
[13] = system: NCI/ADR-RES ovarian
[14] = system: MCF7 breast
[15] = system: U251 CNS
[16] = system: CAKI-1 renal
[17] = system: T-47D breast
[18] = system: SK-MEL-5 melanoma
[19] = system: SR leukemia
[20] = system: MOLT-4 leukemia
[21] = system: NCI-H23 lung
[22] = system: SF-539 CNS
[23] = system: ACHN renal
[24] = system: MDA-MB-231 breast
[25] = system: TK-10 renal
[26] = system: NCI-H522 lung
[27] = system: NCI-H460 lung
[28] = system: OVCAR-3 ovarian
[29] = system: HCT-116 colon
[30] = system: A498 renal
[31] = system: 786-0 renal
[32] = system: HCC-2998 colon
[33] = system: CCRF-CEM leukemia
[34] = system: LOX IMVI melanoma
[35] = system: SW-620 colon
[36] = system: UO-31 renal
[37] = system: HOP-62 NSCLC
[38] = system: NCI-H226 lung
[39] = system: SF-295 CNS
[40] = system: HOP-92 NSCLC
[41] = system: HT29 colon
[42] = system: RXF 393 renal
[43] = system: HCT-15 colon
[44] = system: HS 578T breast
[45] = system: IGROV1 ovarian
[46] = system: HL-60(TB) leukemia
[47] = system: OVCAR-4 ovarian
[48] = system: SF-268 CNS
[49] = system: OVCAR-5 ovarian
[50] = system: RPMI-8226 leukemia
[51] = system: MDA-MB-435
[52] = system: SN12C renal
[53] = system: UACC-62 melanoma
[54] = system: MALME-3M melanoma
[55] = system: SNB-75 CNS
[56] = system: SNB-19 CNS
[57] = system: COLO 205 colon
[58] = system: A549 NSCLC

CC1=NN(c2cccc(Cl)c2)C2(C1=Cc1ccccc1)C(Cl)C(=O)N2c1nc2ccccc2s1 (configuration not stated)
TGI [1]: 37.6 µM | TGI [2]: > 100 µM | TGI [3]: 41.3 µM | TGI [4]: 38.5 µM | TGI [5]: > 100 µM | TGI [6]: 33.7 µM | TGI [7]: 52.3 µM | TGI [8]: 33.2 µM | TGI [9]: > 100 µM | TGI [10]: > 100 µM | TGI [11]: 74.7 µM | TGI [12]: 46.2 µM | TGI [13]: 48.7 µM | TGI [14]: 70.6 µM | TGI [15]: 29.7 µM | TGI [16]: 41.9 µM | TGI [17]: 59.9 µM | TGI [18]: 32.5 µM | TGI [19]: 67.3 µM | TGI [20]: 85.9 µM | TGI [21]: 31.5 µM | TGI [22]: > 100 µM | TGI [23]: 42.4 µM | TGI [24]: 51.3 µM | TGI [25]: > 100 µM | TGI [26]: 36 µM | TGI [27]: 28.5 µM | TGI [28]: 40.6 µM | TGI [29]: 30.3 µM | TGI [30]: 42.8 µM | TGI [31]: 32.9 µM | TGI [32]: 31.1 µM | TGI [33]: > 100 µM | TGI [34]: 64 µM | TGI [35]: 42.4 µM | TGI [36]: 31.9 µM | TGI [37]: 45.3 µM | TGI [38]: 67.8 µM | TGI [39]: 52.3 µM | TGI [40]: 31.6 µM | TGI [41]: 40.5 µM | TGI [42]: 28 µM | TGI [43]: 31.5 µM | TGI [44]: > 100 µM | TGI [45]: 43.7 µM | TGI [46]: 66.4 µM | TGI [47]: 64.7 µM | TGI [48]: 97.6 µM | TGI [49]: 55.8 µM | TGI [50]: > 100 µM | TGI [51]: 41.1 µM

CC(CO)CCNc1ncnc2c1ncn2CCC#N (configuration not stated)
TGI [1]: > 100 µM | TGI [2]: > 100 µM | TGI [3]: > 100 µM | TGI [5]: > 100 µM | TGI [6]: > 100 µM | TGI [7]: > 100 µM | TGI [8]: > 100 µM | TGI [9]: > 100 µM | TGI [10]: > 100 µM | TGI [11]: > 100 µM | TGI [12]: > 100 µM | TGI [13]: > 100 µM | TGI [52]: > 100 µM | TGI [53]: > 100 µM | TGI [14]: > 100 µM | TGI [54]: > 100 µM | TGI [16]: > 100 µM | TGI [17]: > 100 µM | TGI [55]: > 100 µM | TGI [18]: > 100 µM | TGI [19]: > 100 µM | TGI [20]: > 100 µM | TGI [21]: > 100 µM | TGI [22]: > 100 µM | TGI [56]: > 100 µM | TGI [23]: > 100 µM | TGI [24]: > 100 µM | TGI [25]: > 100 µM | TGI [26]: > 100 µM | TGI [27]: > 100 µM | TGI [28]: > 100 µM | TGI [29]: > 100 µM | TGI [30]: > 100 µM | TGI [31]: > 100 µM | TGI [32]: > 100 µM | TGI [33]: > 100 µM | TGI [34]: > 100 µM | TGI [57]: > 100 µM | TGI [35]: > 100 µM | TGI [36]: > 100 µM | TGI [37]: > 100 µM | TGI [38]: > 100 µM | TGI [58]: > 100 µM | TGI [39]: > 100 µM | TGI [40]: > 100 µM | TGI [41]: > 100 µM | TGI [42]: > 100 µM | TGI [44]: > 100 µM | TGI [45]: > 100 µM | TGI [46]: > 100 µM | TGI [47]: > 100 µM | TGI [48]: > 100 µM | TGI [49]: > 100 µM | TGI [50]: > 100 µM | TGI [51]: > 100 µM

C[C@@H](c1ccccc1)C(CC#N)[C@H]1CCC[C@]1(O)C#Cc1ccc2c(c1)OCO2 (some centres not stated)
TGI [1]: 31.1 µM | TGI [2]: 47.8 µM | TGI [3]: 30.4 µM | TGI [4]: 32.7 µM | TGI [5]: 30.1 µM | TGI [6]: 31.6 µM | TGI [7]: 34.6 µM | TGI [8]: 31.6 µM | TGI [9]: 35.4 µM | TGI [10]: 32.7 µM | TGI [11]: 34.6 µM | TGI [12]: 30.9 µM | TGI [13]: 33.8 µM | TGI [53]: 32.7 µM | TGI [14]: 41.3 µM | TGI [54]: 33.8 µM | TGI [15]: 32.1 µM | TGI [16]: 30.8 µM | TGI [17]: 32 µM | TGI [55]: 32 µM | TGI [18]: 32.8 µM | TGI [19]: 46.6 µM | TGI [20]: 25.2 µM | TGI [21]: 35.5 µM | TGI [22]: 24.1 µM | TGI [56]: 29.8 µM | TGI [23]: 30.8 µM | TGI [24]: 33.7 µM | TGI [25]: 29.6 µM | TGI [26]: 32.4 µM | TGI [27]: 31.3 µM | TGI [28]: 29.2 µM | TGI [30]: 34.9 µM | TGI [31]: 31.3 µM | TGI [32]: 30.3 µM | TGI [33]: 35.5 µM | TGI [34]: 39.5 µM | TGI [57]: 33.1 µM | TGI [35]: 33.2 µM | TGI [36]: 27.7 µM | TGI [37]: 31.3 µM | TGI [38]: 33.1 µM | TGI [58]: 29.8 µM | TGI [39]: 32.4 µM | TGI [40]: 28.4 µM | TGI [41]: 28.9 µM | TGI [42]: 28.6 µM | TGI [43]: 32.3 µM | TGI [44]: 43.7 µM | TGI [45]: 33.9 µM | TGI [46]: 43.8 µM | TGI [47]: 32.6 µM | TGI [48]: 38.8 µM | TGI [49]: 30.8 µM | TGI [50]: 62.5 µM | TGI [51]: 31.3 µM
